According to PubChem BioAssay (NCI):
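Compound exposure: 48 hours, 5 concentrations, 96-well plates. The concentration for 50% growth inhibition is given as GI50. TGI denotes the concentration required for complete inhibition of growth.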

Columns and labels:
Experiment in all cases: NCI anticancer screen, dose series, 48 h
[1] = test system: MALME-3M melanoma
[2] = test system: PC-3 prostate
[3] = test system: KM12 colon
[4] = test system: IGROV1 ovarian
[5] = test system: UO-31 renal
[6] = test system: MCF7 breast
[7] = test system: HL-60(TB) leukemia
[8] = test system: HCC-2998 colon
[9] = test system: SW-620 colon
[10] = test system: SK-OV-3 ovarian
[11] = test system: SNB-19 CNS
[12] = test system: U251 CNS
[13] = test system: SNB-75 CNS
[14] = test system: HS 578T breast
[15] = test system: NCI/ADR-RES ovarian
[16] = test system: OVCAR-4 ovarian
[17] = test system: SN12C renal
[18] = test system: NCI-H226 lung
[19] = test system: K-562 leukemia
[20] = test system: OVCAR-8 ovarian
[21] = test system: RPMI-8226 leukemia
[22] = test system: NCI-H522 lung
[23] = test system: SK-MEL-5 melanoma
[24] = test system: RXF 393 renal
[25] = test system: SK-MEL-28 melanoma
[26] = test system: OVCAR-5 ovarian
[27] = test system: UACC-62 melanoma
[28] = test system: 786-0 renal

C#C[C@]1(O)CC[C@H]2[C@@H]3CC=C4c5sc(Nc6cc(Cl)ccn6)nc5CC[C@]4(C)[C@H]3CC[C@@]21C
GI50 [1]: 663 nM | TGI [1]: 2100 nM | GI50 [2]: 386 nM | TGI [2]: 3640 nM | GI50 [3]: 1630 nM | TGI [3]: 8590 nM | GI50 [4]: 1780 nM | TGI [4]: > 21200 nM | GI50 [5]: 383 nM | TGI [5]: 1610 nM | GI50 [6]: 516 nM | TGI [6]: 3430 nM | GI50 [7]: 402 nM | TGI [7]: 2070 nM | GI50 [8]: 2190 nM | TGI [8]: 5520 nM | GI50 [9]: 1090 nM | TGI [9]: 2680 nM | GI50 [10]: 663 nM | TGI [10]: 2170 nM | GI50 [11]: 1230 nM | GI50 [12]: 425 nM | TGI [12]: 1670 nM | GI50 [13]: 637 nM | GI50 [14]: 278 nM | TGI [14]: 1170 nM | GI50 [15]: 1950 nM | TGI [15]: 6650 nM | GI50 [16]: 2800 nM | TGI [16]: > 26200 nM | GI50 [17]: 3360 nM | TGI [17]: > 100000 nM | GI50 [18]: 2140 nM | TGI [18]: 9840 nM | GI50 [19]: 366 nM | TGI [19]: 2450 nM | GI50 [20]: 1400 nM | TGI [20]: 3190 nM | GI50 [21]: 212 nM | TGI [21]: 749 nM | GI50 [22]: 1830 nM | TGI [22]: 4080 nM | GI50 [23]: 1740 nM | TGI [23]: 3320 nM | GI50 [24]: 124 nM | TGI [24]: 380 nM | GI50 [25]: 317 nM | TGI [25]: 1100 nM | GI50 [26]: 2140 nM | TGI [26]: > 20400 nM | GI50 [27]: 846 nM | TGI [27]: 3900 nM | GI50 [28]: 227 nM
